Results from patent US20210290680A1, “METHODS AND COMPOSITIONS FOR MODULATING CELLULAR AGING” (Dorian Therapeutics, Inc., priority 2019, published 2021).

Key:
Type in all cases: cell-based, human
[1] = tested on: TCF7; test: qPCR of WNT pathway regulator TCF7; settings: for TCF7 expression, fold change vs Control: CD19.CAR; for TCF7 expression, fold change vs Control / TCF7 expression vs Control: day 15, n=4; for TCF7 expression vs Control: GD2.CAR; for TCF7 expression, fold increase over Control: primary T cells, day 15
Text: (§1) Primary T cells were activated as described (Example 3), transduced with a lentivirus encoding either a shUSP16 #1, shUSP16 #2 or a non-targeting shRNA (shCtrl) and cells were selected with puromycin at day 6. At day 15 cell were collected and analyzed by qPCR for the expression of LEF1 (FIG. 16A) and TCF7 (FIG. 16B), downstream regulators of the WNT pathway. At day 20, cells were stained for CD4-PE, CD8-BV510, CD62L-Allophycocyanin and CD45RA-APC-Cy7 (Biolegend). Stem cell memory T cells (Tscm) were identified as Sytox^− GFP^+CD45RA^+CD62L^+, central memory T cells (Tcm) as Sytox^−GFP^+CD45RA^−CD62L^+, effector memory T cells (Tem) as Sytox^−GFP^+CD45RA^−CD62L^−, and terminal effector T cell (Teff) as Sytox^−GFP^+CD45RA^+CD62L^− (FIG. 17A). Cells were gated on the CD8 population. The specific increase of Tscm was shown as phenotype ratio (FIG. 17B).
(§2) Primary T cells were activated as described (Example 3), transduced with a lentivirus encoding for either a CD19.CAR or a GD2.CAR co-expressing shUSP16 #1, shUSP16 #2 or a scrambled shRNA (Control). Fifteen days post-activation, T cells were collected and qPCR performed. TaqMan probes detecting CDKN1A, CDKN2A (FIGS. 26A and 26B) (fold change GD2.CAR (n=4): CDKN1A Control vs shUSP #1: 0.4360, p<0.0001, and Control vs shUSP16 #2: 3.036, p=0.004 respectively. Fold change CD19.CAR (n=4): CDKN2a, CDKN1A Control vs shUSP #1: 0.6906, p=0.0026; 0.7228, p=0.0297 and Control vs shUSP16 #2: 0.8385, p=0.2325; 0.7017, p=0.0021), TCF7, LEF1, and Axin-2 (FIGS. 27A and B) were analyzed in GD2.CAR and CD19.CAR-expressing cells, respectively. ACTB was used as internal control. (GD2.CAR (n=4) TCF7, LEF1 and Axin-2: Control vs shUSP #1: 1.914 p=0.0512; 1.795 p=0.0323; 3.269 p=0.15 and Control vs shUSP16 #2: 1.284 p=0.0494; 1.718 p=0.0586; 2.035p=0.235, respectively. Fold change CD19.CAR (n=4): TCF7, LEF1 and Axin-2: Control vs shUSP #1: 1.528, p=0.0277; 1.82, p=0.0449; 1.998, p=0.031 and Control vs shUSP16 #2: 1.18, p=0.2002; 1.579, p=0.0632; 1.261, p=0.2382). USP16 downregulation in CAR-T cells results in a decreased expression of senescence markers and an increase in the expression of genes associated with the activation/increased signaling of the WNT pathway, indicating its importance in delaying cellular senescence and increasing self-renewal.

[2] = tested on: CD19.CAR T cells; test: Apoptosis, necrosis, mitochondrial membrane potential and glutathione content (Amberglass panel); settings: for cells with low mitochondrial membrane potential (Q1) / cellular health: high mitochondrial membrane potential and high GSH content (Q2): day 15; for apoptosis: day 15, FIG. 31A top left; for necrosis: day 15, FIG. 31A top right
Description: Primary T cells were activated as described (Example 3), and transduced with a lentivirus encoding for CD19.CAR co-expressing shUSP16 #1, shUSP16 #2 or a scrambled shRNA (Control). Cells were cultured in IL-2 and sorted between days 6-13 for EGFRt. At day 15 cells were stained and analyzed by MACSQuant for apoptosis, necrosis, mitochondrial membrane potential and glutathione content (GSH). The data generation was powered by Amberglass technology made available by Mojave Bio in the form of a dehydrated panel of reagents on a 96 well plate.

[3] = tested on: NALM cells; test: Re-challenge cytotoxicity assay, CD19.CAR T cells; settings: after double tumor-challenge, n=3
Description: Primary T cells were activated as described (Example 3), transduced with a lentivirus encoding for either a CD19.CAR or a GD2.CAR co-expressing shUSP16 #1, shUSP16 #2 or a scrambled shRNA (Control). Cells were cultured in IL-2 and sorted between days 6-13 for EGFRt. At day 16 cytotoxicity assays were performed. Briefly, cells were counted and 100,000 T cells (adjusted for EGFR expression) were plated at 1:5 Effector:Target (E:T) ratio. At 72 hours, the mixture of tumor cells and T cells were collected, stained for CD3-PE, CD8-BV510, CD19- or GD2-APC, EGFR-AF488 and Sytox and counted by flow cytometry (MACSQuant, Miltenyi Biotec) (FIGS. 30A and 30B). Counting beads (CountBright Absolute Counting beads, Invitrogen) were added before acquisition and absolute number was calculated as following (number of cell events/number of bead events)×(assigned bead count of the lot (beads/50 ul)/volume of sample (ul))=concentration of sample as cells/ul). NALM cells were used as target cells for CD19.CAR T cells and CHLA-55 cells were used as target for GD2.CAR T cells. Three different primary T cell cultures were tested for CD19 and GD2 CAR.
At day 16, regular cytotoxicity assays were also performed (Example 22). Three days post-antigen stimulation, CD19.CAR T cells were stained for EGFR-AF488 (R&D), CD3-PE, CD8-BV510, PD-1-Allophycocyanin and Lag-3 and CTLA4 (Biolegend) and acquired by MACSQuant (Miltenyi Biotec). The co-cultures we also re-challenged with the addition of fresh tumor cells. T cell killing and expansion upon double tumor-challenge was assessed after three days.

[4] = tested on: LEF1; test: qPCR of WNT pathway regulator LEF1; settings: for LEF1 expression, fold change vs Control: CD19.CAR; for LEF1 expression, fold change vs Control / LEF1 expression vs Control: day 15, n=4; for LEF1 expression vs Control: GD2.CAR
Text: as §1, §2

Substance: shUSP16 #2: shRNA targeting USP16, 5′-TATATCAGTTCACCCGTAAT-3′ (SEQ ID NO: 9), pSIH backbone or co-expressed in CAR plasmid
- TCF7 expression, fold change vs Control [1]: 1.18
- TCF7 expression vs Control [1]: 1.284
- TCF7 expression, fold increase over Control [1]: 1.428
- cells with low mitochondrial membrane potential (Q1) [2]: 9.87 percentage of cells
- cellular health: high mitochondrial membrane potential and high GSH content (Q2) [2]: 85.7
- apoptosis [2]: 8.25
- necrosis [2]: 3.96
- T cell number [3]: 204291
- residual tumor cells (NALM) [3]: 160874
- LEF1 expression, fold change vs Control [4]: 1.579
- LEF1 expression vs Control [4]: 1.718

Substance: shUSP16 #1: shRNA targeting USP16, 5′-GACTGTAAGACTGACAATAAA-3′ (SEQ ID NO: 8), pSIH backbone or co-expressed in CAR plasmid
- TCF7 expression, fold change vs Control [1]: 1.528
- TCF7 expression vs Control [1]: 1.914
- TCF7 expression, fold increase over Control [1]: 2.804
- cells with low mitochondrial membrane potential (Q1) [2]: 7.62 percentage of cells
- cellular health: high mitochondrial membrane potential and high GSH content (Q2) [2]: 89.9
- apoptosis [2]: 9.40
- necrosis [2]: 4.75
- T cell number [3]: 192643
- residual tumor cells (NALM) [3]: 282761
- LEF1 expression, fold change vs Control [4]: 1.82
- LEF1 expression vs Control [4]: 1.795
- LEF1 expression, fold increase over Control ([4]; primary T cells, day 15): 1.650
